From US6117976A, “Manufacture and use of polypeptides tagged using binding molecules” (Medical Research Council, priority 1993, dated 2000)
pKd: −log10 of the molar value. “Also recorded” adds a separate entry of the source. Where two headings read alike, the source gives them in different places. No end group written: not given here.

Columns and labels:
[1] = target: T1, calmodulin (Homo sapiens, UniProt P0DP23); test: Native gel autoradiography of 2-[125I]-melatonin with calmodulin; format: binding; settings: 1 μCi 2-[125I]-melatonin, 15% polyacrylamide gel, 0.5 mM CaCl2, no SDS
Method: In order to assess this, 1 μl calmodulin (1 mg/ml) was incubated with 1 μCi 2-[^125 I]-melatonin in 9 μl TBSC and run on a 15% polyacrylamide gel. The gel was as the running gel of Laemmli (Nature 1970 220 680-685), but with 0.5 mM CaCl2 and no SDS in both gel and buffer.

[2] = target: T1, calmodulin; test: Native gel electrophoresis of fluoresceinated TAG peptides with calmodulin; format: binding; settings: excess calmodulin, TBS 1 mM CaCl2, 15% native gel
Description: FIGS. 9A and 9B: Fluorescent and Coomassie blue detection of fluorescent peptide/calmodulin complexes. Native gel electrophoresis of calmodulin and fluoresceinated TAG1 (Track 1), calmodulin and fluoresceinated TAG2 (Track 2), calmodulin and fluoresceinated TAG3 (Track 3), and calmodulin and fluoresceinated TAG4 (Track 4). The gel was first imaged on a UV transilluminator and photographed (FIG. 9A) and then stained with Coomassie blue and photographed (FIG. 9B).
For peptide fluoresceination, 1 mg of each peptide was dissolved in 1 ml of 100 mM NaHCO3, pH 8.9. One volume of peptide was mixed with one volume of water and 2 volumes of 2 mM iodoacetamidofluorescein (Molecular Probes Inc.) in dimethylformamide. The reaction was allowed to proceed for 15 minutes then quenched by adding dithiothreitol to 10 mM final concentration. The fluoresceinated peptides were separated from unreacted fluorescein using a Millipore MEM-SEP cartridge column (TBS=loading and wash buffer; TBS+0.5 M NaCl=elution buffer).
A 20 μl reaction was set up containing ca. 0.4 μg of fluoresceinated peptide and 18 μg of calmodulin (Sigma) in TBS containing 1 mM CaCl2 (TBS is 50 mM Tris-HCl, pH 7.4, 100 mM NaCl in water).

[3] = target: T1, calmodulin; settings: 600 nM calmodulin, 50 nM fluorescein-labeled TAG3, 7 μM unlabelled peptide, on ice, up to 4 hrs
Method: 600 nM calmodulin was pre-mixed in TBSC and 10% sucrose with 50 nM fluorescein-labeled TAG3 peptide. Aliquots were incubated on ice with a large excess (7 μM) unlabeled peptide for 0, 0.5, 1, 2, and 4 hrs, and analysed on a native 15% polyacrylamide gel (as in Laemmli, 1970 supra except with CaCl2 to 1 MM) in a Hoefer Mighty Small apparatus, and imaged with a cooled CCD-camera based fluorescent gel imaging system developed in collaboration with Confocal Technologies (Liverpool, UK) and Digital Pixel (Brighton, UK).
600 nM calmodulin was pre-mixed in TBSC and 10% sucrose with 50 nM fluorescein-labeled TAG3 peptide. Aliquots were incubated on ice with a large excess (7 μM) unlabelled peptide for 0, 0.5, 1, 2, and 4 hrs, and analysed on a native 15% polyacrylamide gel (as in Carr & Scott, 1992 supra) except with CaCl2 to 1 mM) in a Hoefer Mighty Small apparatus, and imaged with a cooled CCD-camera based fluorescent gel imaging system developed in collaboration with Confocal Technologies (Liverpool, UK) and Digital Pixel (Brighton, UK).

[4] = target: T1, calmodulin; settings: cited from earlier work
[5] = tested on: scFv(HyHEL-10)-CAL; test: Native Phast gel analysis of scFv(HyHEL-10)-CAL and MBP-TAG1 interaction; format: binding
Method: FIG. 8B: Homogeneous 20 Native Phast Gel (Pharmacia) for the analysis of scFv(HyHEL-10)-CAL and MBP-TAG1 interaction. Conditions as in FIG. 5, except the gel was stained with Coomassie. Lanes: 1, MBP-TAG1 (0.3 mg/ml); 2, scFv (HyHEL-10)-CAL (0.08 mg/ml); 3, scFv (HyHEL-10) (0.08 mg/ml)+MBP-TAG1 (0.3 mg/ml).
(§1) 2500 resonance units (RUs) of turkey egg lysozyme (TEL) (Sigma) were immobilised on a microsensor chip of a BIAcore machine (Pharmacia). A solution of […] (5 μg/ml) in TBSC was injected onto the chip (flow rate 5 μl/min), followed by injections of MBP-TAG1 (5 μg/ml), then 20 mM EGTA (to dissociate the complex) and then MBP (New England Biolabs 5 μg/ml). […] Conditions were as in Example 7 and FIG. 5, except the gel was stained with Coomassie. Lanes: 1, MBP-TAG1 (0.3 mg/ml); 2, scFv (HyHEL10)-CAL (0.08 mg/ml); 3, scFv (HyHEL-10) (0.08 mg/ml)+MBP-TAG1 (0.3 mg/ml).

[6] = tested on: scFv(HyHEL-10)-CAL; format: binding
Method: FIG. 8A: Binding of scFv-CAL and MBP-TAG1 detected by surface plasmon resonance (Pharmacia Biacore). 2500 resonance units (RUs) of turkey egg lysozyme (TEL) (Sigma) were immobilized on a microsensor chip of a BIAcore machine (Pharmacia). A solution of […] (5 μg/ml) in TBSC was injected onto the chip (flow rate 5 μl/min), followed by injections of MBP-TAG1 (5 μg/ml), then 20 mM EGTA (to dissociate the complex) and then MBP (New England Biolabs 5 μg/ml).
Thus HEL was immobilised on the microsensor chip, and the chip saturated with scFv(HyHEL-10)-CAL.
as §1

[7] = in vivo; cited from earlier work
[8] = tested on: fluoresceinated TAG-3 peptide; test: Band shift assay of alternative fusion partners with fluoresceinated TAG-3 peptide; format: binding; settings: 10 μM fluoresceinated TAG-3, TBSC, High-Density Phast Gel, native
Method: 1 μl of purified scFv (D1.3)-CAL (Example 5), scFv(D1.3)-CAL(N-domain), scFv(D1.3)-CAL(C-domain), calmodulin or troponin C were incubated with 10 μM fluoresceinated TAG-3 peptide and 8 μl TBSC. The samples were run on a High-Density Phast Gel (Pharmacia) using native buffer strips, and gel imaged.

[9] = Table 1, affinities of calmodulin-binding peptides

## COc1ccc2[nH]c([125I])c(CCNC(C)=O)c2c1 [2-[^125 I]-melatonin]
[1]
  detection of calmodulin-melatonin complex on gel (radioactive band): no radioactive band was detected

## COc1ccc2[nH]cc(CCNC(C)=O)c2c1 [Melatonin, melatonin]
[1]
  detection of calmodulin-melatonin complex on gel (radioactive band): no complex is detected on band shift assays

## C-EIKRAAA-INLKALAALAKKIL-IK-OH [TAG 4]
[2]
  peptide-calmodulin complex formation (comigration of fluorescent and coomassie bands): stable complex with calmodulin

## C-EIKRAAA-INLKALAALAKKIL-IKRKRQQ-NH2 [TAG 3]
[3]
  displacement of fluorescent peptide from calmodulin by unlabelled peptide: not significantly displaced from the calmodulin even after four hours competition
[2]
  peptide-calmodulin complex formation (comigration of fluorescent and coomassie bands): the upper of these that has bound peptide

## C-EIKRAAA-INLKALAALAKKIL-NH2 (CEIKRAAAINLKALAALAKKIL-NH2) [TAG 1]
[2]
  peptide-calmodulin complex formation (comigration of fluorescent and coomassie bands): stable complex with calmodulin

## C-EIKRAAA-INLKALAALAKKIL-OH [TAG 2]
[2]
  peptide-calmodulin complex formation (comigration of fluorescent and coomassie bands): stable complex with calmodulin

## IKPAKRMKFKTVCYLLVQLMHCRKMFKA-NH2 [AC-28]
[4]; [9]
  pKd: 8.70

## INLKALAALAKKIL-NH2 [Mastoparan]
[4]; [9]
  pKd: 9.52
[4]; association constant for calmodulin
  Ka: 3.3e+09 M⁻¹
[4]; binding to calmodulin, Malencik and Anderson, 1983
  pKd: 9.52

## KRRAIGFKKLAEAVKFSAKLMGQAMAKRVK-NH2 [NO-30]
[4]; [9]
  pKd: 8.70

## MBP-TAG1: maltose binding protein with the TAG1 peptide appended at the C-terminus (CEIKRAAAINLKALAALAKKIL)
[5]
  stable complex with scFv calmodulin fusion by gel electrophoresis: form a stable complex
[6]; 5 μg/ml in TBSC
  binding to chip saturated with scFv(HyHEL-10)-CAL: shown to bind to the chip
[6]; 20 mM EGTA
  dissociation of bound protein by EGTA: could be dissociated by addition of EGTA

## QILWFRGLNRIQTQIRVVNAFRSS-NH2 [Ca++ pump]
[4]; [9]
  pKd: 8.00

## calmodulin
[7]
  excretion: rapidly excreted in the urine
  immunogenicity: poorly immunogenic
  organ accumulation: does not accumulate selectively in any organ
  toxicity: not toxic
[8]
  complex formation with TAG-3 (fluorescent band): observed

## maltose binding protein [MBP]
[6]
  binding to chip saturated with scFv(HyHEL-10)-CAL: not

## troponin C
[8]
  complex formation with TAG-3 (fluorescent band): observed; also recorded: binds well
